Among the data in patent US10894798B2, “Substituted dihydropyrrolopyrazole derivative” (UBE INDUSTRIES, LTD., priority 2015, dated 2021) are GI50, Ki and inhibition in vivo values, retold here.

Assay [1] has as its system human large intestine cancer cell line (HCT-116). Put plainly: Human large intestine cancer (HCT-116) cell growth inhibition test. It counts as cell-based. As to conditions: HCT-116, 72 h, culture for 3 days, sulforhodamine B, read-out: GI50 value, HCT-116 cell growth inhibition. The essentials:
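HCT-116 cells were seeded at 0.5 to 2.0×10^3 cells/well in McCoy's 5A with 10% FBS and dosed with compound at 0.1% final DMSO after overnight culture. Growth was measured by sulforhodamine B absorbance after 3 days. GI50 was calculated from the inhibition rate at each concentration.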

The target of the next assay is T1, CDK2 (Homo sapiens, UniProt P24941).
T1 construct: purchased Invitrogen Corp. PV3267
Put plainly: CDK2 enzyme inhibition test. It counts as biochemical. The following applies: [γ-33P]ATP, MBP substrate; Ki=IC50/(1+S/Km); read-out: Ki value of CDK2 inhibitory activity. An outline of the steps: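 Commercial CDK2 phosphorylated MBP with [γ-33P]ATP (500 μM solution before mixing) in HEPES pH 7.4 buffer with DTT, Triton X-100 and MgCl2 for 20 min at 30 °C. TCA-precipitated 33P-MBP was counted by scintillation to give the IC50. Ki = IC50/(1+S/Km), with S the ATP concentration in the reaction.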

In assay [2] the test system is human large intestine cancer cell (HCT 116) tumor. Briefly: Tumor growth inhibition test in HCT 116-subcutaneously transplanted nude mouse. It counts as in vivo. The following applies: dose of 100 mg/kg, repeated oral administration, HCT-116 in female BALB nude mice, control group = 100%, read-out: rate of suppression of tumor volume. As to the method:
A human large intestine cancer cell line (HCT-116) was cultured in a McCoy's 5A medium containing 10% FBS and 1% penicillin/streptomycin/amphotericin B and adjusted to 1.0×10^8 cells/mL with PBS or Hanks solution (HBSS(−)). The prepared cell suspension was subcutaneously injected at 0.1 mL/mouse to the right abdomens of female BALB nude mice (supplied by Charles River Laboratories Japan, Inc.). After rearing for a certain period, the long diameter (mm) and short diameter (mm) of tumor were measured with electronic calipers, and the tumor volume was calculated according to the following expression: Tumor volume (mm^3)=(Long diameter)×(Short diameter)×(Short diameter)×0.5
Individuals whose tumor volume was within the range of 50 to 200 mm^3 were selected and grouped such that the tumor volume was almost equivalent, then a test compound or only a solvent was orally administered in a repeated manner, and the body weights and tumor volume were measured. A test compound was suspended in a 0.5 w/v % aqueous methylcellulose solution (0.5% MC) (manufactured by Wako Pure Chemical Industries, Ltd.) and orally administered at 10 mL/kg in a repeated manner. When the tumor volume of the control group was defined as 100%, the rate of suppression of tumor volume (%) at each dose of the test compound was calculated.

The next assay deals with T2, CDK7 (Homo sapiens, UniProt P50613).
T2 construct: purchased Carna Biosciences, Inc. 04-108
T2 sequence (P50613 whole entry): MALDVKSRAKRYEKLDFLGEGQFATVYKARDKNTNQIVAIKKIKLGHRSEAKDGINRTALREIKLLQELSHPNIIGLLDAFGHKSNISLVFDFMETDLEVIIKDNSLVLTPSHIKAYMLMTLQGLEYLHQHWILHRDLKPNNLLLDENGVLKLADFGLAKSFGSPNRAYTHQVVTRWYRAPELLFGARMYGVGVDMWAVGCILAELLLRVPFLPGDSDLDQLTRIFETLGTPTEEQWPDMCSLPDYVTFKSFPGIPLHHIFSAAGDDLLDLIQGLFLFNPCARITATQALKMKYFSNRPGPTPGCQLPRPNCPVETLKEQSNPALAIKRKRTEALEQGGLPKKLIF
T2 sequence (P51946 whole entry partner): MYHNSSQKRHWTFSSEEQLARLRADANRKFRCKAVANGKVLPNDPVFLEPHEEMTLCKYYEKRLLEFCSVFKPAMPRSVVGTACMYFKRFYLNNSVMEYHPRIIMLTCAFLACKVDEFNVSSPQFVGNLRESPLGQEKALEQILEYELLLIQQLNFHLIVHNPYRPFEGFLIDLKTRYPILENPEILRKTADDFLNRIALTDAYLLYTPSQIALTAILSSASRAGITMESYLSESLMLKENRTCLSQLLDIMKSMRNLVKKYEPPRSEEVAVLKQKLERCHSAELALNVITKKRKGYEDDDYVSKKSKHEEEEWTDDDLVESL
T2 sequence (P51948 whole entry partner): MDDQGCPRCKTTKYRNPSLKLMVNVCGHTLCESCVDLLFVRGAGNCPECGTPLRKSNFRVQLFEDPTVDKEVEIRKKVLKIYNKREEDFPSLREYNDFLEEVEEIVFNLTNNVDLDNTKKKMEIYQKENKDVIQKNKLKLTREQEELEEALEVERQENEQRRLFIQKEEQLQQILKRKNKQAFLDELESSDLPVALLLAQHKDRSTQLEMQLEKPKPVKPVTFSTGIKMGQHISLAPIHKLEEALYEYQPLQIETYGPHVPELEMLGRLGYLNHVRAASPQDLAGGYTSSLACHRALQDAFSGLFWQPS
Put plainly: CDK7 enzyme inhibition test. It is filed as biochemical. The following applies: [γ-33P]ATP, MBP substrate, 60 min preincubation at 25°C; Ki=IC50/(1+S/Km); read-out: Ki value of CDK7 inhibitory activity. The essentials: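 Commercial human CDK7 with myelin basic protein substrate in HEPES pH 7.4 buffer with DTT, Triton X-100, MgCl2; compound preincubated 60 min at 25° C, then reaction run 20 min at 30° C after adding [γ-^33P]ATP (500 μM solution). TCA-precipitated ^33P-MBP counted by scintillation; IC50 converted to Ki via Ki=IC50/(1+S/Km).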

For another assay, the target named is T3, PLK1 (Homo sapiens, UniProt P53350).
T3 construct: purchased Carna Biosciences, Inc. 05-157
T3 sequence (P53350 whole entry): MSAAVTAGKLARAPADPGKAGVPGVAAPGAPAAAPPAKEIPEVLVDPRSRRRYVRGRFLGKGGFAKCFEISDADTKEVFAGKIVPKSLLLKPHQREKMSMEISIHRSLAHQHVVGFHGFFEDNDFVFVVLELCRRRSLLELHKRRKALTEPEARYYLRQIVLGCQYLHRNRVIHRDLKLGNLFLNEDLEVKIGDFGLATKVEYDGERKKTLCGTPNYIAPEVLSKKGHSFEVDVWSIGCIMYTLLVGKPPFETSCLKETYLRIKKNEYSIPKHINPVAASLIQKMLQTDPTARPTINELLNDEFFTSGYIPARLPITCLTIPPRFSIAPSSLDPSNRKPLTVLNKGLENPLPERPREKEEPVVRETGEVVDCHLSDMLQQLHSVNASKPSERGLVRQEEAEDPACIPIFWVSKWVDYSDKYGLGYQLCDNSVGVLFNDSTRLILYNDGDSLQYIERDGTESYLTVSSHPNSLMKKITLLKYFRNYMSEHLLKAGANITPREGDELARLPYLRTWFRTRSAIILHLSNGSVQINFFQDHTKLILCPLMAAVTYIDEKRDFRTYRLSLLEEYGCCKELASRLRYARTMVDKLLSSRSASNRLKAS
Briefly: PLK1 enzyme (polo-like kinase) inhibition test. The following applies: [γ-33P]ATP, casein substrate; Ki=IC50/(1+S/Km); read-out: Ki value of PLK1 inhibitory activity. It counts as biochemical. The essentials:
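Recombinant PLK1 phosphorylates casein with [γ-^33P]ATP in MOPS buffer (pH 7.0) containing DTT and magnesium acetate, 20 min at 30° C. Reaction stopped with TCA; washed precipitate counted by liquid scintillation. IC50 for inhibition of ^33P incorporation into casein, converted to Ki via Ki=IC50/(1+S/Km).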

Regarding `CC1(C)c2[nH]nc(NC(=O)C3([Si](C)(C)C)CCC3)c2CN1C(=O)Nc1ccccc1` [IV-1, 6,6-Dimethyl-N-phenyl-3-[1-(trimethylsilyl)cyclobutanecarboxamido]-4,6-dihydropyrrolo[3,4-c]pyrazole-5(1H)-carboxamide], the GI50 (usually the concentration giving 50% growth inhibition) in assay [1] is at most 100 nM. The Ki (as a rule, a measure of affinity in units of concentration, obtained from inhibition or displacement) was at least 1000 nM at CDK2 and at most 50 nM on CDK7. For the same compound, the inhibition in vivo at 100 mg/kg in assay [2] was at least 50%.

With `CC1(C)c2[nH]nc(NC(=O)C3([Si](C)(C)C)CCC3)c2CN1C(=O)Nc1c(F)cccc1Br` [IV-121, N-(2-Bromo-6-fluorophenyl)-6,6-dimethyl-3-[1-(trimethylsilyl)cyclobutanecarboxamido]-4,6-dihydropyrrolo[3,4-c]pyrazole-5 (1H)-carboxamide], the GI50 in assay [1] was at most 100 nM. In addition, the inhibition constant (Ki) on PLK1 was at least 5000 nM; on CDK7, at most 50 nM. In addition, the inhibition in vivo at 100 mg/kg in assay [2] was at least 50%.

With `Cc1ccc(NC(=O)N2Cc3c(NC(=O)C4([Si](C)(C)C)CCC4)n[nH]c3C2(C)C)c(C)c1` [IV-377, N-(2,4-Dimethylphenyl)-6,6-dimethyl-3-[1-(trimethylsilyl)cyclobutanecarboxamido]-4,6-dihydropyrrolo[3,4-c]pyrazole-5(1H)-carboxamide], in assay [1], the GI50 was at most 100 nM. The Ki is at least 1000 nM on CDK2, at least 5000 nM at PLK1 and at most 50 nM on CDK7.

Regarding `Cc1cccc(C)c1NC(=O)N1Cc2c(NC(=O)C3([Si](C)(C)C)CCC3)n[nH]c2C1(C)C` [IV-381, N-(2,6-Dimethylphenyl)-6,6-dimethyl-3-[1-(trimethylsilyl)cyclobutanecarboxamido]-4,6-dihydropyrrolo[3,4-c]pyrazole-5(1H)-carboxamide], in assay [1], the GI50 is at most 100 nM. In addition, the figures for the Ki on CDK2, on PLK1 and at CDK7 were at least 1000 nM, at least 5000 nM and at most 50 nM, respectively.

Regarding `Cc1ccc(F)c(NC(=O)N2Cc3c(NC(=O)C4([Si](C)(C)C)CCC4)n[nH]c3C2(C)C)c1F` [IV-609, N-(2,6-Difluoro-3-methylphenyl)-6,6-dimethyl-3-[1-(trimethylsilyl)cyclobutanecarboxamido]-4,6-dihydropyrrolo[3,4-c]pyrazole-5(1H)-carboxamide], in assay [1], the GI50 was at most 100 nM. Also, the inhibition constant (Ki) on CDK2 is at least 1000 nM; on PLK1, at least 5000 nM; at CDK7, at most 50 nM.

As for `COc1cc(F)c(NC(=O)N2Cc3c(NC(=O)C4([Si](C)(C)C)CCC4)n[nH]c3C2(C)C)c(F)c1` [IV-615, N-(2,6-Difluoro-4-methoxyphenyl)-6,6-dimethyl-3-[1-(trimethylsilyl)cyclobutanecarboxamido]-4,6-dihydropyrrolo[3,4-c]pyrazole-5(1H)-carboxamide], the GI50 in assay [1] was at most 100 nM. Also, the Ki is at least 1000 nM on CDK2, at least 5000 nM on PLK1 and at most 50 nM at CDK7.

Consider `Cc1ccc(Cl)c(NC(=O)N2Cc3c(NC(=O)C4([Si](C)(C)C)CCC4)n[nH]c3C2(C)C)c1F` [IV-629, N-(6-Chloro-2-fluoro-3-methylphenyl)-6,6-dimethyl-3-[1-(trimethylsilyl)cyclobutanecarboxamido]-4,6-dihydropyrrolo[3,4-c]pyrazole-5(1H)-carboxamide], for which the GI50 in assay [1] is at most 100 nM. Besides, the values for the inhibition constant (Ki) on CDK2, at PLK1 and on CDK7 were at least 1000 nM, at least 5000 nM and at most 50 nM, respectively.

For the compound `COc1ccc(C)c(F)c1NC(=O)N1Cc2c(NC(=O)C3([Si](C)(C)C)CCC3)n[nH]c2C1(C)C` [IV-689, N-(2-Fluoro-6-methoxy-3-methylphenyl)-6,6-dimethyl-3-[1-(trimethylsilyl)cyclobutanecarboxamido]-4,6-dihydropyrrolo[3,4-c]pyrazole-5(1H)-carboxamide], in assay [1], the GI50 is at most 100 nM. Further, the Ki at CDK2 is at least 1000 nM; on PLK1, at least 5000 nM; at CDK7, at most 50 nM.

For the compound `Cc1ccc(F)c(NC(=O)N2Cc3c(NC(=O)C4([Si](C)(C)C)CCC4)n[nH]c3C2(C)C)c1Cl` [IV-703, N-(2-Chloro-6-fluoro-3-methylphenyl)-6,6-dimethyl-3-[1-(trimethylsilyl)cyclobutanecarboxamido]-4,6-dihydropyrrolo[3,4-c]pyrazole-5(1H)-carboxamide], the GI50 in assay [1] is at most 100 nM. The results for the inhibition constant (Ki) on CDK2, on PLK1 and on CDK7 were at least 1000 nM, at least 5000 nM and at most 50 nM, respectively.

As for `CC1(C)c2[nH]nc(NC(=O)C3([Si](C)(C)C)CCC3)c2CN1C(=O)Nc1c(Cl)cc(F)cc1Cl` [IV-709, N-(2,6-Dichloro-4-fluorophenyl)-6,6-dimethyl-3-[1-(trimethylsilyl)cyclobutanecarboxamido]-4,6-dihydropyrrolo[3,4-c]pyrazole-5(1H)-carboxamide], the GI50 in assay [1] is at most 100 nM. Also, the Ki is at least 1000 nM at CDK2, at least 5000 nM on PLK1 and at most 50 nM at CDK7.

`Cc1ccc(F)c(Cl)c1NC(=O)N1Cc2c(NC(=O)C3([Si](C)(C)C)CCC3)n[nH]c2C1(C)C` [IV-747, N-(2-Chloro-3-fluoro-6-methylphenyl)-6,6-dimethyl-3-[1-(trimethylsilyl)cyclobutanecarboxamido]-4,6-dihydropyrrolo[3,4-c]pyrazole-5(1H)-carboxamide]: the 50% growth inhibitory concentration (GI50) in assay [1] is at most 100 nM. Further, the figures for the Ki at CDK2, on PLK1 and at CDK7 were at least 1000 nM, at least 5000 nM and at most 50 nM, respectively.

For the compound `CC1(C)c2[nH]nc(NC(=O)C3([Si](C)(C)C)CCC3)c2CN1C(=O)Nc1c(F)ccc2c1OCC2` [IV-997, N-(6-Fluoro-2,3-dihydrobenzofuran-7-yl)-6,6-dimethyl-3-[1-(trimethylsilyl)cyclobutanecarboxamido]-4,6-dihydropyrrolo[3,4-c]pyrazole-5(1H)-carboxamide], the 50% growth inhibitory concentration (GI50) in assay [1] is at most 100 nM. The Ki is at least 1000 nM at CDK2, at least 5000 nM on PLK1 and at most 50 nM at CDK7.

Consider `CC1(C)c2[nH]nc(NC(=O)C3([Si](C)(C)C)CCC3)c2CN1C(=O)Nc1cccs1` [IV-1043, 6,6-Dimethyl-N-(thiophen-2-yl)-3-[1-(trimethylsilyl)cyclobutanecarboxamido]-4,6-dihydropyrrolo[3,4-c]pyrazole-5(1H)-carboxamide], for which, in assay [1], the GI50 was at most 100 nM. The figures for the Ki at CDK2, at PLK1 and on CDK7 were at least 1000 nM, at least 5000 nM and at most 50 nM, respectively.

For the compound `CC1(C)c2[nH]nc(NC(=O)C3([Si](C)(C)C)CCC3)c2CN1C(=O)Nc1ccsc1` [IV-1045, 6,6-Dimethyl-N-(thiophen-3-yl)-3-[1-(trimethylsilyl)cyclobutanecarboxamido]-4,6-dihydropyrrolo[3,4-c]pyrazole-5(1H)-carboxamide], the GI50 in assay [1] was at most 100 nM. The Ki is at least 1000 nM at CDK2, at least 5000 nM at PLK1 and at most 50 nM on CDK7.

For the compound `Cc1cc2ccc(F)c(NC(=O)N3Cc4c(NC(=O)C5([Si](C)(C)C)CCC5)n[nH]c4C3(C)C)c2o1` [IV-1059, N-(6-Fluoro-2-methylbenzofuran-7-yl)-6,6-dimethyl-3-[1-(trimethylsilyl)cyclobutanecarboxamido]-4,6-dihydropyrrolo[3,4-c]pyrazole-5(1H)-carboxamide], the GI50 in assay [1] is at most 100 nM. For the same compound, the results for the Ki at CDK2, on PLK1 and at CDK7 were at least 1000 nM, at least 5000 nM and at most 50 nM, respectively.

`Cc1coc2c(NC(=O)N3Cc4c(NC(=O)C5([Si](C)(C)C)CCC5)n[nH]c4C3(C)C)c(F)ccc12` [IV-1061, N-(6-Fluoro-3-methylbenzofuran-7-yl)-6,6-dimethyl-3-[1-(trimethylsilyl)cyclobutanecarboxamido]-4,6-dihydropyrrolo[3,4-c]pyrazole-5(1H)-carboxamide]: the GI50 in assay [1] was at most 100 nM. For the same compound, the Ki was at least 1000 nM on CDK2, at least 5000 nM at PLK1 and at most 50 nM on CDK7.
